Assays:
[1] = Selectivity index, ratio of IC50 for human LO2 cells to IC50 for human NCI-H1975 cells expressing EGFR T790M/L858R mutant; format: toxicity
[2] = Selectivity index, ratio of IC50 for human HK2 cells to IC50 for human NCI-H1975 cells expressing EGFR T790M/L858R mutant
[3] = Selectivity index, ratio of IC50 for human HLF cells to IC50 for human NCI-H1975 cells expressing EGFR T790M/L858R mutant
NCI-H1975 [4] = assay: Inhibition of cell migration in human NCI-H1975 cells at 5 nM incubated for 24 hrs by phase contrast microscopy relative to control; format: functional; settings: NCI-H1975, 24 h
NCI-H1975 [5] = assay: Inhibition of cell migration in human NCI-H1975 cells at 50 nM incubated for 24 hrs by phase contrast microscopy relative to control; format: functional; settings: NCI-H1975, 24 h
NCI-H1975 [6] = assay: Inhibition of cell migration in human NCI-H1975 cells at 25 nM incubated for 24 hrs by phase contrast microscopy relative to control; format: functional; settings: Homo sapiens, NCI-H1975, 24 h
NCI-H1975 [7] = assay: Induction of apoptosis in human NCI-H1975 cells assessed as viable cells at 5 nM incubated for 24 hrs by propidium iodide and annexin-V FITC staining based flow cytometry (reference value: 98.82 %); format: functional; settings: NCI-H1975, 24 h, read-out: Activity
NCI-H1975 [8] = assay: Induction of apoptosis in human NCI-H1975 cells assessed as early apoptotic cells at 5 nM incubated for 24 hrs by propidium iodide and annexin-V FITC staining based flow cytometry (reference value: 0.94 %); format: functional
NCI-H1975 [9] = assay: Induction of apoptosis in human NCI-H1975 cells assessed as late apoptotic cells at 5 nM incubated for 24 hrs by propidium iodide and annexin-V FITC staining based flow cytometry (reference value: 0.23 %); format: functional
NCI-H1975 [10] = assay: Induction of apoptosis in human NCI-H1975 cells assessed as early apoptotic cells at 25 nM incubated for 24 hrs by propidium iodide and annexin-V FITC staining based flow cytometry (reference value: 0.94 %); format: functional
NCI-H1975 [11] = assay: Induction of apoptosis in human NCI-H1975 cells assessed as necrotic cells at 25 nM incubated for 24 hrs by propidium iodide and annexin-V FITC staining based flow cytometry (reference value: 0.01 %); format: functional
NCI-H1975 [12] = assay: Induction of apoptosis in human NCI-H1975 cells assessed as late apoptotic cells at 50 nM incubated for 24 hrs by propidium iodide and annexin-V FITC staining based flow cytometry (reference value: 0.23 %); format: functional
NCI-H1975 [13] = assay: Induction of apoptosis in human NCI-H1975 cells assessed as necrotic cells at 50 nM incubated for 24 hrs by propidium iodide and annexin-V FITC staining based flow cytometry (reference value: 0.01 %); format: functional
NCI-H1975 [14] = assay: Induction of apoptosis in human NCI-H1975 cells assessed as early apoptotic cells at 5 nM incubated for 48 hrs by propidium iodide and annexin-V FITC staining based flow cytometry (reference value: 0.95 %); format: functional
NCI-H1975 [15] = assay: Induction of apoptosis in human NCI-H1975 cells assessed as late apoptotic cells at 5 nM incubated for 48 hrs by propidium iodide and annexin-V FITC staining based flow cytometry (reference value: 0.23 %); format: functional
NCI-H1975 [16] = assay: Induction of apoptosis in human NCI-H1975 cells assessed as early apoptotic cells at 25 nM incubated for 48 hrs by propidium iodide and annexin-V FITC staining based flow cytometry (reference value: 0.95 %); format: functional
NCI-H1975 [17] = assay: Induction of apoptosis in human NCI-H1975 cells assessed as late apoptotic cells at 25 nM incubated for 48 hrs by propidium iodide and annexin-V FITC staining based flow cytometry (reference value: 0.23 %); format: functional
NCI-H1975 [18] = assay: Induction of apoptosis in human NCI-H1975 cells assessed as early apoptotic cells at 50 nM incubated for 48 hrs by propidium iodide and annexin-V FITC staining based flow cytometry (reference value: 0.95 %); format: functional
NCI-H1975 [19] = assay: Induction of apoptosis in human NCI-H1975 cells assessed as late apoptotic cells at 50 nM incubated for 48 hrs by propidium iodide and annexin-V FITC staining based flow cytometry (reference value: 0.23 %); format: functional
NCI-H1975 [20] = assay: Induction of apoptosis in human NCI-H1975 cells assessed as necrotic cells at 50 nM incubated for 48 hrs by propidium iodide and annexin-V FITC staining based flow cytometry (reference value: 0.01 %); format: functional
NCI-H1975 [21] = assay: Induction of apoptosis in human NCI-H1975 cells assessed as early apoptotic cells at 5 nM incubated for 72 hrs by propidium iodide and annexin-V FITC staining based flow cytometry (reference value: 2.43 %); format: functional
NCI-H1975 [22] = assay: Induction of apoptosis in human NCI-H1975 cells assessed as late apoptotic cells at 5 nM incubated for 72 hrs by propidium iodide and annexin-V FITC staining based flow cytometry (reference value: 0.01 %); format: functional
NCI-H1975 [23] = assay: Induction of apoptosis in human NCI-H1975 cells assessed as necrotic cells at 5 nM incubated for 72 hrs by propidium iodide and annexin-V FITC staining based flow cytometry (reference value: 0.01 %); format: functional
NCI-H1975 [24] = assay: Induction of apoptosis in human NCI-H1975 cells assessed as viable cells at 25 nM incubated for 72 hrs by propidium iodide and annexin-V FITC staining based flow cytometry (reference value: 97.55 %); format: functional; settings: NCI-H1975, 72 h, read-out: Activity
NCI-H1975 [25] = assay: Induction of apoptosis in human NCI-H1975 cells assessed as early apoptotic cells at 25 nM incubated for 72 hrs by propidium iodide and annexin-V FITC staining based flow cytometry (reference value: 2.43 %); format: functional
NCI-H1975 [26] = assay: Induction of apoptosis in human NCI-H1975 cells assessed as early apoptotic cells at 50 nM incubated for 72 hrs by propidium iodide and annexin-V FITC staining based flow cytometry (reference value: 2.43 %); format: functional
NCI-H1975 [27] = assay: Induction of apoptosis in human NCI-H1975 cells assessed as late apoptotic cells at 50 nM incubated for 72 hrs by propidium iodide and annexin-V FITC staining based flow cytometry (reference value: 0.01 %); format: functional
NCI-H1975 [28] = assay: Induction of apoptosis in human NCI-H1975 cells assessed as necrotic cells at 50 nM incubated for 72 hrs by propidium iodide and annexin-V FITC staining based flow cytometry (reference value: 0.01 %); format: functional
[29] = Tmax in ICR mouse at 10 mg/kg, po; format: ADME, organism-based; settings: in vivo
[30] = Cmax in ICR mouse at 10 mg/kg, po; format: ADME, organism-based; design: dose 10 mg/kg, route oral; settings: in vivo
[31] = MRT (0 to infinity) in ICR mouse at 10 mg/kg, po; format: ADME, organism-based; settings: in vivo
[32] = Cmax in ICR mouse at 5 mg/kg, iv; format: ADME, organism-based; design: dose 5 mg/kg, route intravenous; settings: in vivo
[33] = MRT (0 to t) in ICR mouse at 5 mg/kg, iv; format: ADME, organism-based; settings: in vivo
[34] = Clearance in ICR mouse at 5 mg/kg, iv; format: ADME, organism-based; settings: in vivo
[35] = molecular target: Epidermal growth factor receptor (Homo sapiens, UniProt P00533); assay: Inhibition of EGFR in human NCI-H292 cells assessed as reduction in EGFR Y1068 phosphorylation at incubated for 4 hrs by Western blot analysis; format: cell-based
Chain of Epidermal growth factor receptor (P00533 whole entry): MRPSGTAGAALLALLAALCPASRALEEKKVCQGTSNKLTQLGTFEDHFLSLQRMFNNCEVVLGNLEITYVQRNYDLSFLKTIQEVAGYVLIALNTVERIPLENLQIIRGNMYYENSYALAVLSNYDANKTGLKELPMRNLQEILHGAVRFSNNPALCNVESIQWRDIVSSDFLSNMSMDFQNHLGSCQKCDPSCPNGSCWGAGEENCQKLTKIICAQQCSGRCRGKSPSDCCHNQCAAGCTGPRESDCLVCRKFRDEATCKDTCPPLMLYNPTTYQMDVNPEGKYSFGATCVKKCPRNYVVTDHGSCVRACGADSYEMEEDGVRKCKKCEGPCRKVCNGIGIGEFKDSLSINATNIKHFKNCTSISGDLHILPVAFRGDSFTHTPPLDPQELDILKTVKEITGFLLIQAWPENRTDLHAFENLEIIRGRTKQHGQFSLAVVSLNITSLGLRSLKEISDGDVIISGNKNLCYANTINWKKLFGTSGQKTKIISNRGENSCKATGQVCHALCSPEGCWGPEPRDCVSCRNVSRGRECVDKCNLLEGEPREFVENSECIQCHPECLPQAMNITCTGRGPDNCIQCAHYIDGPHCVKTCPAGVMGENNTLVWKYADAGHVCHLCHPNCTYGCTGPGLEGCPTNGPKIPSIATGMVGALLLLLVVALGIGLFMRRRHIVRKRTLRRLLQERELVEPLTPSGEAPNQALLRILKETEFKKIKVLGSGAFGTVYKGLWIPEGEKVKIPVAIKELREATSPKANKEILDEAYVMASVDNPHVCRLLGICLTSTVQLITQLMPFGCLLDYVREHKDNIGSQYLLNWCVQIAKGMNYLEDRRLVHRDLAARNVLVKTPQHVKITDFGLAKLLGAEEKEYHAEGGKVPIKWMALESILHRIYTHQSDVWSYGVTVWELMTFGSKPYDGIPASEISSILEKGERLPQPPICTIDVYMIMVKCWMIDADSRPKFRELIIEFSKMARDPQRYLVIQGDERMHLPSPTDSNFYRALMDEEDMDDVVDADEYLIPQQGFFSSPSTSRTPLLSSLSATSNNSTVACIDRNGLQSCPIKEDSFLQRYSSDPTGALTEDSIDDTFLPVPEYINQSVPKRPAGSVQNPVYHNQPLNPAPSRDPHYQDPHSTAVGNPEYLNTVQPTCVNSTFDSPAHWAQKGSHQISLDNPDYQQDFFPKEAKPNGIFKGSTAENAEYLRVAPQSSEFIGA

**Q.** With `C=CC(=O)Nc1cc(Nc2nccc(-c3cn(C)c4ccccc34)n2)c(OC)cc1[S+]([O-])CCN(C)C` (single isomer, unassigned; (-)) as the molecule, how does the “Ratio IC50” value [1] read?
**A.** > 1000

**Q.** And the “Ratio IC50” value [2]?
**A.** >1000

**Q.** What about the “Ratio IC50” value [3] of the same molecule?
**A.** 910

**Q.** And the inhibition at 0.005 µM (NCI-H1975 [4])?
**A.** 45.1%

**Q.** What about the inhibition at 0.05 µM (NCI-H1975 [5]) of the same molecule?
**A.** 87.6%

**Q.** What about the inhibition at 0.025 µM (NCI-H1975 [6]) of the same molecule?
**A.** 69.7%

**Q.** What about the viability at 0.005 µM (NCI-H1975 [7]) of the same molecule?
**A.** 83.6%

**Q.** What about the Activity (NCI-H1975 [8]) of the same molecule?
**A.** 14.89%

**Q.** And the Activity (NCI-H1975 [9])?
**A.** 1.17%

**Q.** What about the Activity (NCI-H1975 [10]) of the same molecule?
**A.** 22.23%

**Q.** What about the Activity (NCI-H1975 [11]) of the same molecule?
**A.** 0.14%

**Q.** What about the Activity (NCI-H1975 [12]) of the same molecule?
**A.** 2.3%

**Q.** What about the Activity (NCI-H1975 [13]) of the same molecule?
**A.** 0.45%

**Q.** What about the Activity (NCI-H1975 [14]) of the same molecule?
**A.** 22.89%

**Q.** And the Activity (NCI-H1975 [15])?
**A.** 0.06%

**Q.** And the Activity (NCI-H1975 [16])?
**A.** 51.86%

**Q.** And the Activity (NCI-H1975 [17])?
**A.** 2.73%

**Q.** What about the Activity (NCI-H1975 [18]) of the same molecule?
**A.** 56.02%

**Q.** And the Activity (NCI-H1975 [19])?
**A.** 29.59%

**Q.** And the Activity (NCI-H1975 [20])?
**A.** 0.71%

**Q.** And the Activity (NCI-H1975 [21])?
**A.** 21.59%

**Q.** And the Activity (NCI-H1975 [22])?
**A.** 18.71%

**Q.** And the Activity (NCI-H1975 [23])?
**A.** 1.2%

**Q.** What about the viability at 0.025 µM (NCI-H1975 [24]) of the same molecule?
**A.** 35.2%

**Q.** And the Activity (NCI-H1975 [25])?
**A.** 43.25%

**Q.** And the Activity (NCI-H1975 [26])?
**A.** 58.1%

**Q.** What about the Activity (NCI-H1975 [27]) of the same molecule?
**A.** 30.74%

**Q.** And the Activity (NCI-H1975 [28])?
**A.** 1.84%

**Q.** What about the Tmax [29] of the same molecule?
**A.** 30 min

**Q.** And the Cmax [30]?
**A.** 695 ng/mL

**Q.** What about the MRT inf [31] of the same molecule?
**A.** 2.68 h

**Q.** What about the Cmax [32] of the same molecule?
**A.** 1610 ng/mL

**Q.** What about the MRT last [33] of the same molecule?
**A.** 1.15 h

**Q.** And the clearance [34]?
**A.** 63.9 mL/min/kg

**Q.** What about the EC50 [35] of the same molecule?
**A.** 90.2 nM

From ChEMBL document CHEMBL4376823, “The discovery of a potent and selective third-generation EGFR kinase inhibitor as a therapy for EGFR L858R/T790M double mutant non-small cell lung cancer” (Eur J Med Chem, 2019)
